The source of these data is patent US11401278B2, “Macrocyclic indole derivatives” (The Broad Institute, Inc., priority 2017, dated 2022).

Values joined by “and” are separate entries in the source; they are usually repeats but may differ in a detail not shown here. Identical values can stand only once. Counter-ions that a name gives are not always drawn. Like-named read-outs stand apart in the source and are kept apart here.

The test system of one assay is A2780. The assay is described as follows: Antiproliferation assay (Assay 7), A2780. The class given is cell-based. Conditions: CellTiter-Glo, several values per example. As to the method:
Assessment of the Anti-Proliferative Effect of Compounds in Different Cell Lines
The impact of compounds on the proliferation of different cell lines was assessed using the CellTiter-Glo® Luminescent Cell Viability reagent from Promega (G7573).
In parallel, cells were plated in a reference (day 0) plate for time zero determination.
Rim wells were excluded. The cells were incubated for 72 hours in a humidified incubator at 37° C. The day 0 plate was measured by adding 30 μL/well of CTG solution (CellTiter-Glo® Luminescent Cell Viability reagent, Promega G7573) to time zero wells in the reference plate followed by a 10 minutes incubation and luminescence reading at 0.1 ms. using the PHERAstar FS microplate reader (BMG Labtech).
After 72 hours incubation, the treated plates were measured in the same way as the day 0 plate mentioned above.
Background: Cellular ATP, detected with luciferase, serves as a proxy for viable cell number.

A further assay addresses MCL-1 (Homo sapiens (Human), UniProt Q07820, K194A/K197A/R201A). The assay is described as follows: Protein-compound interaction assay (SPR assay, Assay 8). The class given is binding. The settings on record: immobilized MBP-MCL-1, 25° C., geometric mean. An excerpt:
Assay 8 Protein-Compound Interaction Assay (SPR Assay)
The ability of the compounds described in this invention to bind to MCL-1 may be determined using surface plasmon resonance (SPR). This allows for the quantification of binding in terms of the equilibrium dissociation constant (KD [M]), as well as association and dissociation rate constants (kon [1/M 1/s] and koff [1/s], respectively). The measurements may be performed using Biacore® T200 or Biacore® S200 instruments (GE Healthcare).
For SPR measurements, recombinant MCL-1 (amino acids 173-321, N-terminal fused to Maltose Binding Protein (MBP) (SEQ ID 1) purchased from Beryllium (Bedford, Mass., USA)) was immobilized using standard amine coupling (Johnsson B et al, Anal Biochem. 1991 Nov. 1; 198(2):268-77). Briefly, carboxymethylated dextran biosensor chips (Series S Sensor Chip CMS, GE Healthcare) were activated with 1-ethyl-3-(3-dimethylaminopropyl)-carbodiimide hydrochloride (EDC) and N-hydroxysuccinimide (NHS) according to the supplier's instructions. MBP-MCL-1 was diluted in 1×PBS-P+ (GE Healthcare) and injected on the activated chip surface. Subsequently, a solution of 1 M ethanolamine-HCl (GE Healthcare) was injected to block unreacted groups, resulting in approximately 400-2500 response units (RU) of immobilized protein. A reference surface was generated by treatment with NHS-EDC and ethanolamine-HCl. Compounds were dissolved in 100% dimethylsulfoxide (DMSO) to a concentration of 10 mM and subsequently diluted in running buffer (1×PBS-P+ (GE Healthcare) [generated from PBS-P+ Buffer 10× (GE Healthcare): 0.2 M phosphate buffer with 27 mM KCl, 1.37 M NaCl and 0.5% Surfactant P20 (Tween 20).], 1% v/v DMSO). For SPR binding-measurements, serial dilutions of compound (eight dilution steps, typically ranging from 0.2 nM up to 1 μM) were injected over immobilized protein. […] Compounds were injected for 60 s followed by a dissociation time of up to 1000 s.
The double-referenced sensorgrams were fit to a simple reversible Langmuir 1:1 reaction mechanism as implemented in the Biacore® T200 and S200 evaluation software (T200 evaluation software version 2.0 and S200 evaluation software version 1.0, GE Healthcare).

The next assay has as its target MCL1 protein (Homo sapiens (Human), UniProt Q07820). Briefly: PIxEL: protein-protein interaction in permeabilized cells by ELISA (Assay 5). The format is cell-based. Conditions: permeabilized RKO cells, Biotin-BIM peptide 0.2 μM, serum free; median. As to the method:
PI×EL: Protein-Protein Interaction in Permeabilized Cells by ELISA
Most MCL1 protein molecules are localized at the mitochondria outer membrane and sequester pro-apoptotic proteins through binding of their BCL2 homology domain 3 (BH3 domain). MEB buffer (150 mM mannitol, 10 mM HEPES pH 7.5, 50 mM KCl, 20 μM EDTA, 20 μM EGTA, 5 mM potassium succinate, 0.1% protease-free BSA (SIGMA) with low dose digitonin (0.002%) permeabilizes plasma membrane while leaves live mitochondria, where MCL1 maintains its native localization and conformation. Unlike biophysical assays (e.g. TR-FRET) that use truncated recombinant MCL1 protein, this assay uses full length endogenous MCL1 protein at mitochondria outer membrane. It measures the interaction between MCL1 protein and biotinylated BIM BH3 peptide. Compounds can compete with BIM BH3 peptide to bind to MCL1 protein. This serum free assay measures the affinity between MCL1 protein and compound in permeabilized cells, therefore it is not affected by serum binding and cell permeability, and can measure the intrinsic compound affinity.
On day 1, RKO colon cancer cell line cells were plated at 0.8 million cells/ml, 100 μl/well in 96-well flat bottom TC plates (Corning). MCL1 antibody (Santa Cruz sc-12756) were diluted at 200 fold (final concentration 1 μg/ml) in carbonate buffer (Thermo Fisher Scientific, pH 9.6), and 50 μl of diluted antibody was added to each well of high bind ELISA plates (SARSTEDT). Each plate was tapped to make sure liquid covering entire bottom of wells and incubate at 37° C. overnight.
On the second day, MCL1 antibody was washed from ELISA plate. 250 μl Odyssey® Blocking Buffer (PBS) (Li-Cor) was added to each well, incubated at room temperature for at least 1 hour, then washed once with 250 μl 1×PBST. Plates with RKO cells were gently washed once with 100 μl/well PBS, once with 100 μl/well MEB buffer without digitonin, then 100 μl of MEB buffer with 0.002% digitonin was gently added to each well. Compounds were added with HP Tecan compound dispenser in 3-fold dilution series, highest dose 30 μM, 10-dose per compound in quadruplicates. Biotin-BIM peptide (synthesized by 21st Century) was added with HP Tecan compound dispenser at 0.2 μM immediately after the addition of compounds. Plates were rocked for 1 hour at room temperature. Then MEB buffer was aspirated and 50 μl of CHAPS buffer (50 mM Tris-Cl, pH 7.4, 150 mM NaCl, 1% CHAPS, 1 mM EDTA, 1 mM EGTA, cOmplete protease inhibitors (Roche), PhosSTOP (Roche)) was added to each well. Plates were rocked for 1 hour at 4° C., then 45 μl cell lysate from each well were transferred to ELISA plates coated with MCL1 antibody. Plates were incubated overnight in the cold room with rocking.
On the third day, ELISA plates were washed once with 250 μl 1×PBST. Streptavidin-poly-HRP (Thermo Fisher Scientific) was diluted to 20 ng/ml in Odyssey blocking buffer plus 0.05% Triton-100, and 100 μl was added to each well of the ELISA plate. Plates were incubated at room temperature for 1 hour with rocking, then washed with 100 μL 1×PBST for 3 times. Each SuperSignal ELISA Femto Maximum Sensitivity substrate was added to a 50-ml tube and mixed, then 100 μl of mixed substrate was added to each well. Plates were shaken for 1 minute then luminescence was measured by Envision plate reader […]. Signal of each well were normalized by no-compound control and no-cell control. IC50 was calculated using Graphic Pad PRISM software.
Background: An ELISA detects its analyte on a solid surface through an enzyme-linked reagent.

Setting [1] is: Homo sapiens, A2780, 72 h, read-out: Antiproli A2780 [M] IC50.

Sequence of MCL-1 (Q07820 whole entry K194A/K197A/R201A, looked up): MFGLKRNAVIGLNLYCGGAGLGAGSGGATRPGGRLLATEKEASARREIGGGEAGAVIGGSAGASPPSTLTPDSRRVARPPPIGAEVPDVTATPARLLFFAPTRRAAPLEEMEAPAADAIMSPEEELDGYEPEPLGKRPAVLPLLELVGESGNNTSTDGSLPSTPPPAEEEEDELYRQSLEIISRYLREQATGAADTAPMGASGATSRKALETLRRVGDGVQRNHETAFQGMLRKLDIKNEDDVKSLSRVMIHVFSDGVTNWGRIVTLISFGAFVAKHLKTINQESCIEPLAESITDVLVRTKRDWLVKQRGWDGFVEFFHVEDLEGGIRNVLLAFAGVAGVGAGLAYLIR
Sequence of MCL1 protein (Q07820 whole entry): as the sequence (Q07820 whole entry K194A/K197A/R201A, looked up) above, with A194K, A197K, A201R counted along it

As for `Cc1c2c(nn1C)CN(C)S(=O)(=O)CCCn1c(C(=O)O)c(CCCOc3cccc4ccccc34)c3ccc(Cl)c-2c31` (single isomer, unassigned; enantiomer 2) [Example 6, 4-Chloro-2,3,14-trimethyl-7-{3-[(naphthalen-1-yl)oxy]propyl}-13,13-dioxo-10,11,12,13,14,15-hexahydro-2H-13λ^6-pyrazolo[3′,4′:4,5][1,2,8]thiadiazacycloundecino[6,7,8-hi]indole-8-carboxylic acid-N-ethylethanamine salt (Enantiomer 2)], the half-maximal inhibitory concentration (IC50) in the assay with A2780 (72 hours, listed as 06, read-out: Antiproli A2780 [M] IC50) was 1.19e-05 M.

Take `Cc1c2c(nn1C)CN(CCN1CCOCC1)S(=O)(=O)CCCn1c(C(=O)O)c(CCCOc3cccc4ccccc34)c3cccc-2c31` (racemic) [Example 1, (rac)-2,3-Dimethyl-14-[2-(morpholin-4-yl)ethyl]-7-{3-[(naphthalen-1-yl)oxy]propyl}-13,13-dioxo-10,11,12,13,14,15-hexahydro-2H-13λ^6-pyrazolo[3′,4′:4,5][1,2,8]thiadiazacycloundecino-[6,7,8-hi]indole-8-carboxylic acid]: the half-inhibitory concentration (IC50) is over 3.3e-05 M in the assay on A2780 (72 hours, listed as 01, read-out: Antiproli A2780 [M] IC50) and 3.21e-05 M in the assay on A2780 (setting [1]).

Consider `Cc1c2c(nn1C)CN(CCN1CCOCC1)S(=O)(=O)CCCn1c(C(=O)O)c(CCCOc3cccc4ccccc34)c3cccc-2c31` (single isomer, unassigned; enantiomer 2) [Example 3, 2,3-Dimethyl-14-[2-(morpholin-4-yl)ethyl]-7-{3-[(naphthalen-1-yl)oxy]propyl}-13,13-dioxo-10,11,12,13,14,15-hexahydro-2H-13λ^6-pyrazolo[3′,4′:4,5][1,2,8]thiadiazacycloundecino-[6,7,8-hi]indole-8-carboxylic acid-N-ethylethanamine salt (Enantiomer 2)], for which the IC50 in the assay on A2780 (72 hours, listed as 03, read-out: Antiproli A2780 [M] IC50) was found to be 2.11e-05 M.

For `Cc1c2c(nn1C)CN(C)S(=O)(=O)CCCn1c(C(=O)O)c(CCCOc3cccc4ccccc34)c3ccc(Cl)c-2c31` (racemic) [Example 4, (rac)-4-Chloro-2,3,14-trimethyl-7-{3-[(naphthalen-1-yl)oxy]propyl}-13,13-dioxo-10,11,12,13,14,15-hexahydro-2H-13λ^6-pyrazolo[3′,4′:4,5][1,2,8]thiadiazacycloundecino-[6,7,8-hi]indole-8-carboxylic acid], the concentration for half-maximal inhibition (IC50) in the assay on A2780 (72 hours, listed as 04, read-out: Antiproli A2780 [M] IC50) is 1.66e-05 M; in the assay on A2780 (setting [1]) it was 1.22e-05 M.

The molecule `Cc1c2c(nn1C)CN(C)S(=O)(=O)CCCn1c(C(=O)O)c(CCCOc3cccc4ccccc34)c3ccc(Cl)c-2c31` (single isomer, unassigned; enantiomer 1) [Example 5, 4-Chloro-2,3,14-trimethyl-7-{3-[(naphthalen-1-yl)oxy]propyl}-13,13-dioxo-10,11,12,13,14,15-hexahydro-2H-13λ^6-pyrazolo[3′,4′:4,5][1,2,8]thiadiazacycloundecino[6,7,8-hi]indole-8-carboxylic acid-N-ethylethanamine salt (Enantiomer 1)] came in with a dissociation constant (Kd) on MCL-1 of 0.0024 µM. Further, at MCL-1 (read-out: koff), the koff was determined as 0.0079 s⁻¹. The kon at MCL-1 (read-out: kon) was found to be 3.2e+06 M⁻¹ s⁻¹. The IC50 in the assay on A2780 (72 hours, listed as 05, read-out: Antiproli A2780 [M] IC50) was 9.33e-06 M and 1.13e-05 M; at MCL1 protein, 0.57 µM.

By IC50 is commonly meant the point on the concentration scale where inhibition reaches its midpoint. As a reminder, the Kd is the free concentration of one partner at which half of the binding sites on the other are occupied at equilibrium, for simple one-to-one binding. One may read the koff as the first-order rate constant of dissociation. As a reminder, the kon is a measure of how fast the partners come together.
